Consider 17 molecules from patent US5756505A, “N-acylpiperazine derivative, antibacterial drug and anti-ulcer drug” (Shiseido Co., Ltd., priority 1995, dated 1998).

Molecules are shown by their SMILES. ≈ marks a conversion by molar mass, not a printed value. Where two headings read alike, the source gives them in different places.

One experiment deals with stress ulcer formation. Briefly: WIS: Restraint and Water Immersion Stress-Induced Ulcer Inhibition Test. The experiment is classed as in vivo, rat (male Crj:SD or Slc:SD). The settings on record: rat; for WIS: ulcer formation inhibitory rate: 100 mg/kg oral, 7 hours stress; for anti-ulcer effect (in words): in vivo. The method, then: WIS: Restraint and Water Immersion Stress-Induced Ulcer Inhibition Test
The degree of inhibition of the stress ulcer formation is tested.
Male Crj:SDor Slc:SD rats (6 to 7-week-old) were fasted overnight, but allowed free access to water. Each group has 5 to 8 of these rats. The sample compound was dissolved or suspended in an aqueous solution of 0.3% sodium carboxymethylcellulose or 0.05% Tween 80 and then was orally administered (100 mg/10 ml/kg). To a control group, the vehicle was administered. 10 minuts later, the rats were placed in a stress cage and immersed to the level of xipfoid process in a water bath (21° C.) for 7 hours. At the end of the stress, the rats were sacrificed by inhalation of ether or carbon dioxide. Then, the stomach of each was removed, inflated by injecting 10 ml of 5% formalin neutral buffer solution, and immersed in 1% formalin neutral buffer solution for 30 minutes or more to be fixed. The stomach was incised along the greater curvature and then the length of each erosion in the glandular portion was determined under dissecting microscope. The sum of the length of erosions per stomach was defined as ulcer index (UI).
The effect obtained when 100 mg/kg of the sample compound had been administered was expressed as ulcer formation inhibitory rate (%) as follows:
ulcer formation inhibitory rate (%)=[1-(UI in sample group/UI in control group)]×100

Experiment [1] concerns isolated gastric fundic gland. Briefly: CAP: Acid Secretion Inhibition Test In Vitro ([14C]-aminopyrine uptake). The experiment is classed as cell-based, rabbit (male Japanese White). The settings on record: for inhibition at 10 µM: Oryctolagus cuniculus, read-out: CAP: acid secretion inhibitory rate. How it is done:
CAP: Acid Secretion Inhibition Test In Vitro
The acid secretion inhibitory activity in a cell level is studied. It can also be used for studying the mechanism of the effect. […]
ii-a) Preparation of isolated gastric fundus gland suspension
First, an isolated gastric fundic gland sample was prepared. Namely, a male Japanese White rabbit (2.5 to 3 kg) was anesthetized to death with Nembutal™ and then the abdomen was incised. Immediately thereafter, the stomach was removed and, after its pyloric and cardiac antrum were severed, incised along its greater curvature into two sheets. The gastric contents adhering to the mucosal surface was washed out with ice-cooled PBS (-) and then carefully washed therein. The gastric wall was spread on a cork board with its mucosal surface facing up and the feed and mucus thereon were completely removed with sterile gauze. The mucosa was separated therefrom by a spatula and then collected in ice-cooled PBS (-). After being washed twice with PBS (-), the mucosa was minced into 2-3mm^3 pieces by scissors. These pieces were further washed twice with a nutrient solution. The nutrient solution comprises 132.4 mM of NaCl, 5.4 mM of KCl, 5 mM of Na2 HPO4 ·12H2 O, 1 mM of NaH2 PO4 ·2H2 O, 1.2 mM of MgSO4, 1 mM of CaCl2, 25 mM of HEPES, 2mg/ml of glucose, and 1 mg/ml of BSA. Into 70 ml of the nutrient solution containing 1 mg/ml of collagenase, minced mucosal pieces were dispersed and intensely stirred in a conical flask with a stirrer at 37° C. for 40 to 60 minutes. During this period, 100% O2 was sprayed on the nutrient solution surface and the pH was appropriately measured such that it was immediately adjusted to pH 7.4, when the value was therebelow, with a base. The nutrient solution was added to the reaction solution so as to attain the total amount of about 200 ml. After being filtered through a mesh, the suspension was divisionally introduced into 50 ml centrifuge tubes and left for 15 minutes such that gastric fundic gland was deposited. The supernatant was repeatedly removed by an aspirator, dispersed in the nutrient solution, and then left such that the gastric fundic gland was washed three times. At this time, without using a pipette, the suspension was alternately introduced into two centrifuge tubes so as to effect dispersion. The number of cells was counted under microscope and adjusted to 1.6×10^6 cells/ml. […]
ii-b) [^14 C]-aminopyrine uptake test
Then, [^14 C]-aminopyrine uptake test was performed. After an Eppendorf tube was weighed, 10 μl (final concentration: 10^-5 M) of histamine dissolved in the above-mentioned nutrient solution, 10 μl (final concentration: 10^-5 M) of the test compound dissolved in DMSO, and 10 μl (final concentration: 0.05 μCi/ml) of [^14 C]-aminopyrine diluted with the nutrient solution were introduced therein and then 970 μl of the isolated gastric fundic gland suspension prepared above were added thereto. Subsequently, this mixture was shaken at 37° C. for 40 minutes at 125 cycles/minute. After being centrifuged for 30 minutes 200 μl of its supernatant was collected into a mini-vial, while the rest was removed by an aspirator. The gland pellet was completely dried as the tube with its lid being opened was kept for one night in a drying oven at 80° C. and then the lid was closed and the weight was determined at room temperature. Then 100 μl of 1N KOH were added thereto and the tube with its lid being closed was treated at 60° C. for 1 to 2 hours so as to dissolve the pellet. Then, the contents thereof were transferred to a mini-vial. Into the mini-vial containing the supernatant or gland pellet, 4 ml of Atomlite™ were added and then the radioactivity was measured by a liquid scintillation counter. Here, after the radioactivity of the gland pellet was corrected by using a sample in which 20 mM of NaSCN were added so as to cancel the hydrogen ion concentration gradient, the integration ratio of aminopyrine specifically trapped by the gland pellet was calculated. […]

For a further experiment, the system named is Helicobacter pyroli. Kind of experiment: AHP: Antibacterial Activity Test Against Helicobacter pyroli. The experiment is classed as cell-based, Helicobacter pyroli NCTC 11637. The settings on record: for MIC: Helicobacter, NCTC11637, 168 h, H. pyroli NCTC 11637, agar dilution, 7 days, read-out: AHP: minimum inhibitory concentration (MIC). The method, then:
AHP: Antibacterial […] Against Helicobacter pyroli i)Meaning The minimum inhibitory concentration (MIC) against Helicobacter pyroli (microaerophilic gram-negative bacterium which is supposed to deeply involve in pathogenesis, relapse, and recrudescence of ulcer, referred to as "HP" in the following) is measured so as to find out compounds which have antimicrobial activity against Helicobacter pyroli. ii)Method MICs were determined by the agar dilution method. […] Grown colonies were transfered to the same plate and cultured for 3 days under the same condition. […] A 1,000 μg/ml solution of the sample compound containing DMSO not more than 25% was […] diluted 2-fold in sterile purified water. 100 μl volume from each dilution was mixed thoroughly with 900 μl of brucella agar supplemented with 5% horse blood and solidified in a 24 well micro plate. 10 μl of the bacterial suspension (about 10^3 cfu) was inoculated on this plate and cultured for 7 days under the same condition as that of preculture.
(In general: In agar dilution, organisms are placed on agar that contains the substance at set levels.)

Setting [2] is: final concentration 10^-5 M, histamine 10^-5 M, rabbit gastric fundic gland.

Take `CC(C)Cc1cc(C(=O)N2CCN(CC(C)C)CC2)ccc1OCc1ccc(F)cc1F.Cl` [Example 24, 1-[4-(2,4-difluorobenzyloxy)-3-isobutylbenzoyl]-4-isobutylpiperazine hydrochloride]: the “WIS: ulcer formation inhibitory rate” value with stress ulcer formation was 72%. Besides, the inhibition at 10 µM in experiment [1] (setting [2]) was 99%. In the experiment on Helicobacter pyroli, the MIC was 6.25 µg/mL.

Take `CC(C)Cc1cc(CN2CCN(CC(C)C)CC2)ccc1OCc1ccc(F)cc1.Cl.Cl` [Example 20, 1-[4-(4-fluorobenzyloxy)-3-isobutylbenzyl]-4-isobutylpiperazine dihydrochloride]: in the experiment on stress ulcer formation, the “WIS: ulcer formation inhibitory rate” value was determined as 82% and the “anti-ulcer effect (in words)” value was “effects were observed”. The inhibition at 10 µM in experiment [1] (setting [2]) came out at 100%.

With `Cc1cccc(COc2ccc(C(=O)N3CCN(CC(C)C)CC3)cc2CC(C)C)c1F.Cl` [Example 12, 1-[4-(2-fluoro-3-methylbenzyloxy)-3-isobutylbenzoyl]-4-isobutylpiperazine hydrochloride], the “WIS: ulcer formation inhibitory rate” value in the experiment on stress ulcer formation worked out at 83%. Moreover, the inhibition at 10 µM in experiment [1] (setting [2]) amounted to 100%.

Take `C=C(C)Cc1cc(C(=O)N2CCN(CC(C)C)CC2)ccc1OCc1ccc(F)cc1.Cl` [Example 4, 1-[4-(4-fluorobenzyloxy)-3-methallylbenzoyl]-4-isobutylpiperazine hydrochloride]: the “WIS: ulcer formation inhibitory rate” value in the experiment with stress ulcer formation was 65%. Also, the inhibition at 10 µM in experiment [1] (setting [2]) was 94%. The MIC in the experiment with Helicobacter pyroli turned out to be 25 µg/mL.

`CC(C)Cc1cc(C(=O)N2CCN(CC(C)C)CC2)ccc1OCc1ccc(F)cc1` [Example 21, 1-[4-(4-fluorobenzyloxy)-3-isobutylbenzoyl]-4-isobutylpiperazine]: in the experiment with stress ulcer formation, the “WIS: ulcer formation inhibitory rate” value is given as 84% and the “anti-ulcer effect (in words)” value is “improved”. In addition, in experiment [1] (setting [2]), the inhibition at 10 µM was 100%. Also, in the experiment on Helicobacter pyroli, the “antibacterial activity against Helicobacter pyroli (in words)” value is “improved”.

Consider `CC(C)Cc1cc(C(=O)N2CCN(CCO)CC2)ccc1OCc1ccc(F)cc1` [Example 9, 1-[4-(4-fluorobenzyloxy)-3-isobutylbenzoyl]-4-(2-hydroxyethyl)piperazine], for which, in the experiment on stress ulcer formation, the “WIS: ulcer formation inhibitory rate” value came out at 88% and the “anti-ulcer effect (in words)” value is “sufficient effects”. Besides, in experiment [1] (setting [2]), the inhibition at 10 µM came out at 100%.

As to `CC(C)CN1CCN(C(=O)c2ccc(OCc3ccc(F)cc3)cc2)CC1` [Example 5, 1-[4-(4-fluorobenzyloxy)benzoyl]-4-isobutylpiperazine], in the experiment with stress ulcer formation, the “WIS: ulcer formation inhibitory rate” value stood at 59%. The “CAP: acid secretion inhibitory rate” value in experiment [1] (setting [2]) was 96%. In addition, in the experiment on Helicobacter pyroli, the MIC worked out at 12.5 µg/mL (≈ 33.7 µM).

Consider `CC(C)CN1CCN(C(=O)c2ccc(OCc3ccc(F)cc3)c([N+](=O)[O-])c2)CC1.Cl` [Example 8, 1-[4-(4-fluorobenzyloxy)-3-nitrobenzoyl]-4-isobutylpiperazine hydrochloride], for which the “WIS: ulcer formation inhibitory rate” value in the experiment on stress ulcer formation is 35%. In addition, the inhibition at 10 µM in experiment [1] (setting [2]) stood at 100%.

Turning to `CC(C)Cc1cc(CC(=O)N2CCN(CC(C)C)CC2)ccc1OCc1ccccc1` [Example 15, 1-(4-benzyloxy-3-isobutylphenylacetyl)-4-isobutylpiperazine], in the experiment on stress ulcer formation, the “WIS: ulcer formation inhibitory rate” value was determined as 71% and the “anti-ulcer effect (in words)” value is reported as “sufficient effects were observed”. In addition, in experiment [1], the inhibition at 10 µM was 99%.

In the case of `COc1ccc(COc2ccc(C(=O)N3CCN(CC(C)C)CC3)cc2CC(C)C)cc1` [Example 14, 1-isobutyl-4-[3-isobutyl-4-(4-methoxybenzyloxy)benzoyl]piperazine], in the experiment on stress ulcer formation, the “WIS: ulcer formation inhibitory rate” value stood at 76%. For the same molecule, in experiment [1] (setting [2]), the inhibition at 10 µM turned out to be 100%. For the same molecule, in the experiment on Helicobacter pyroli, the MIC turned out to be 25 µg/mL (≈ 57 µM).

Regarding `CC(C)Cc1cc(C(=O)N2CCN(CC(C)C)CC2)ccc1OCc1ccc(F)c(F)c1.Cl` [Example 23, 1-[4-(3,4-difluorobenzyloxy)-3-isobutylbenzoyl]-4-isobutylpiperazine hydrochloride], the “WIS: ulcer formation inhibitory rate” value with stress ulcer formation is 83%. Besides, in experiment [1] (setting [2]), the inhibition at 10 µM stood at 99%. Besides, in the experiment with Helicobacter pyroli, the MIC amounted to 25 µg/mL.

`CC(C)Cc1cc(C(=O)N2CCN(CC(C)C)CC2)ccc1OCc1ccc(F)c(F)c1` [Example 26, 1-[4-(3,4-difluorobenzyloxy)-3-isobutylbenzoyl]-4-isobutylpiperazine]: the “WIS: ulcer formation inhibitory rate” value with stress ulcer formation is reported as 63%. The “CAP: acid secretion inhibitory rate” value in experiment [1] (setting [2]) is listed as 99%. In addition, the MIC in the experiment on Helicobacter pyroli was 12.5 µg/mL (≈ 28.1 µM).

`CC(C)Cc1cc(C(=O)N2CCN(CC(C)C)CC2)ccc1OCc1ccc(F)cc1.Cl` [Example 22, 1-[4-(4-fluorobenzyloxy)-3-isobutylbenzoyl]-4-isobutylpiperazine hydrochloride]: in the experiment on stress ulcer formation, the “WIS: ulcer formation inhibitory rate” value is 85% and the “anti-ulcer effect (in words)” value is on record as “improved”. The “CAP: acid secretion inhibitory rate” value in experiment [1] (setting [2]) is 98%. In the experiment on Helicobacter pyroli, the “antibacterial activity against Helicobacter pyroli (in words)” value was “improved” and the MIC was 12.5 µg/mL.

In the case of `CC(C)CN1CCN(C(=O)c2ccc(OCc3ccccc3)cc2)CC1` [Example 3, 1-(4-benzyloxybenzoyl)-4-isobutylpiperazine], the “WIS: ulcer formation inhibitory rate” value with stress ulcer formation worked out at 69%. Moreover, the inhibition at 10 µM in experiment [1] (setting [2]) came out at 85%.

As for `CC(C)CN1CCN(C(=O)c2ccc(OCc3ccc(F)cc3)cc2)CC1.Cl` [Example 2, 1-[4-(4-fluorobenzyloxy)benzoyl]-4-isobutylpiperazine hydrochloride], the “WIS: ulcer formation inhibitory rate” value with stress ulcer formation is listed as 79%. In addition, the inhibition at 10 µM in experiment [1] (setting [2]) came out at 99%.

`CC(C)Cc1cc(C(=O)N2CCN(CC(C)C)CC2)ccc1OCc1ccccc1F.Cl` [Example 19, 1-[4-(2-fluorobenzyloxy)-3-isobutylbenzoyl]-4-isobutylpiperazine hydrochloride]: in the experiment with stress ulcer formation, the “WIS: ulcer formation inhibitory rate” value was determined as 64%. The “CAP: acid secretion inhibitory rate” value in experiment [1] (setting [2]) is recorded as 95%.

In the case of `CC(C)Cc1cc(C(=O)N2CCN(CC(C)C)CC2)ccc1OCc1ccc([N+](=O)[O-])cc1.Cl` [Example 13, 1-isobutyl-4-[3-isobutyl-4-(4-nitrobenzyloxy)benzoyl]piperazine hydrochloride], in the experiment with stress ulcer formation, the “WIS: ulcer formation inhibitory rate” value came out at 77%. The MIC in the experiment with Helicobacter pyroli amounted to 12.5 µg/mL.
